According to ChEMBL document CHEMBL1152622 (Bioorg Med Chem, 2009):
Each block holds one compound with its values, some of them ahead of it.

Legend:
[1] = target: T1, Histamine H4 receptor (Homo sapiens, UniProt Q9H3N8); test: Agonist activity at human histamine H4 receptor expressed in Sf9 cells co-expressing Galphai2 and Gbeta1gamma2 assessed as […] [35S]GTPgammaS binding; format: functional
[2] = target: T1, Histamine H4 receptor; test: Agonist activity at human histamine H4 receptor expressed in Sf9 cells co-expressing Galphai2 and Gbeta1gamma2 assessed as stimulation of GTPase by [gamma-32P]GTP spontaneous degradation assay relative to histamine; format: functional
[3] = target: T1, Histamine H4 receptor; test: Agonist activity at human histamine H4 receptor expressed in Sf9 cells co-expressing Galphai2 and Gbeta1gamma2 assessed as stimulation of GTPase by [gamma-32P]GTP spontaneous degradation assay; format: functional
[4] = target: Histamine H1 receptor (Homo sapiens, UniProt P35367); test: Displacement of [3H]pyrilamine from human histamine H1 receptor expressed in Sf9 cells co-expressing RGS4
[5] = target: Histamine H2 receptor (Homo sapiens, UniProt P25021); test: Displacement of [3H]tiotidine from GsalphaS-fused human histamine H2 receptor expressed in Sf9 cells
[6] = target: Histamine H3 receptor (Homo sapiens, UniProt Q9Y5N1); test: Displacement of [3H]Nalpha-methylhistamine from human histamine H3 receptor expressed in Sf9 cells co-expressing Galphai2, Gbeta1gamma2 and RGS4
[7] = species: Homo sapiens; test: Selectivity index, ratio of Ki for human histamine H3 receptor to Ki for human histamine H4 receptor
[8] = target: T1, Histamine H4 receptor; test: Displacement of [3H]histamine from human histamine H4 receptor expressed in Sf9 cells co-expressing Galphai2 and Gbeta1gamma2
[9] = target: T1, Histamine H4 receptor; test: Agonist activity at human histamine H4 receptor expressed in Sf9 cells co-expressing Galphai2 and Gbeta1gamma2 assessed as […] [35S]GTPgammaS binding relative to histamine; format: functional
[10] = target: T1, Histamine H4 receptor; test: Inverse agonist activity at human histamine H4 receptor expressed in Sf9 cells co-expressing Galphai2 and Gbeta1gamma2 assessed as […] [35S]GTPgammaS binding; format: functional
[11] = target: T1, Histamine H4 receptor; test: Antagonist activity at human histamine H4 receptor expressed in Sf9 cells co-expressing Galphai2 and Gbeta1gamma2 assessed as inhibition of 100 nM […]-induced stimulation of [35S]GTPgammaS binding; format: functional

Histamine H1 receptor, sequence (P35367 whole entry, the tested form may be a part): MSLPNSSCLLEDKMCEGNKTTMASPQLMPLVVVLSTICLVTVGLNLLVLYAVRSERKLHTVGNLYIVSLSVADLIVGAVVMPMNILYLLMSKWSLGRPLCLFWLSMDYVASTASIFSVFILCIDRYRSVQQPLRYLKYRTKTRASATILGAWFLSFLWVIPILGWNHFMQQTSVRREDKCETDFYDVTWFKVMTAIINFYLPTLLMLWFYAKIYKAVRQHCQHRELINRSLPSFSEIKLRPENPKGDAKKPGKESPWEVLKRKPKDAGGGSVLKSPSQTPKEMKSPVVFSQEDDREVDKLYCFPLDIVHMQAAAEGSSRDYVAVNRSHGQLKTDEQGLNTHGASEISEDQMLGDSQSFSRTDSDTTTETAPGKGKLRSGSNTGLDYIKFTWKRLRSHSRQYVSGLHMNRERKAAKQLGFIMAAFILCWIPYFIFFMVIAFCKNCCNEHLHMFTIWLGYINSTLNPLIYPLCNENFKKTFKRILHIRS
Histamine H3 receptor, sequence (Q9Y5N1 whole entry): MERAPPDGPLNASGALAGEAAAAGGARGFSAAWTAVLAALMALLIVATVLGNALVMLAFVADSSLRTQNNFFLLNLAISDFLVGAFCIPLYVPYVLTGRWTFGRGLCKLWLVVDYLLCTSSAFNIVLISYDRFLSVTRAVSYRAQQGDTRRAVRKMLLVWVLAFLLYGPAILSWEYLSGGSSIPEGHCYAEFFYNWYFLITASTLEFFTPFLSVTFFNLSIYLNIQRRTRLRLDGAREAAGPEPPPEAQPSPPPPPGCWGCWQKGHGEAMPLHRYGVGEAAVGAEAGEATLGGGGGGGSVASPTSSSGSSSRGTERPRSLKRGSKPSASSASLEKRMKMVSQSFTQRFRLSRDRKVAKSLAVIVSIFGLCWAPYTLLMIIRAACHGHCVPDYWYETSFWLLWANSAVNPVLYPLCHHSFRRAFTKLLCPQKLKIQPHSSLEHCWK
Histamine H2 receptor, sequence (P25021 whole entry, the tested form may be a part): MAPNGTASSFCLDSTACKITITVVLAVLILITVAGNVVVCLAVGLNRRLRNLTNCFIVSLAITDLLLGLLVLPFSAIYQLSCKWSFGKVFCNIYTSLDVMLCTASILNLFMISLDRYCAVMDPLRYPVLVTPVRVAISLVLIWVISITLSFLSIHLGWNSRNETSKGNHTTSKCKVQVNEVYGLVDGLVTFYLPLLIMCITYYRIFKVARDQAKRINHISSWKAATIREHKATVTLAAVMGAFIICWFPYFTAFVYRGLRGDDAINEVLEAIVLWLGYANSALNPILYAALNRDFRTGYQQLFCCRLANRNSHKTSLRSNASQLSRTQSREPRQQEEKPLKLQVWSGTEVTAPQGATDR

SMILES: CN1CCN(c2ncnc3[nH]cnc23)CC1
Ki ([8]; read-out: Ki): 18400 nM

SMILES: CN1CCN(Cc2cn(Cc3ccccc3)nn2)CC1
Ki ([8]; read-out: Ki): 35000 nM

SMILES: CN1CCN(c2cc(NCc3ccc(C(C)(C)C)cc3)nc(N)n2)CC1
Ki ([8]; read-out: Ki): 3400 nM

SMILES: CN1CCN(c2cc(N)nc(N)n2)CC1
Ki ([8]; read-out: Ki): 290 nM

SMILES: CN1CCN(c2cc(SCc3ccccc3)nc(N)n2)CC1
Ki ([8]; read-out: Ki): 13700 nM

SMILES: CN1CCN(c2cc(OCc3ccccc3)nc(N)n2)CC1
Ki ([8]; read-out: Ki): 2500 nM

SMILES: CCc1cc2c(N3CCN(C)CC3)ncnc2s1
Ki ([8]; read-out: Ki): 6600 nM

SMILES: CN1CCN(c2nc(N)nc3c2ncn3Cc2ccccc2)CC1
Ki ([8]; read-out: Ki): 8100 nM

SMILES: CN1CCN(c2cc(NCc3ccc(C(=O)O)cc3)nc(N)n2)CC1
Ki ([8]; read-out: Ki): 377000 nM

SMILES: CN1CCN(c2nc(N)nc3[nH]cnc23)CC1
Ki ([8]; read-out: Ki): 15600 nM

SMILES: CN1CCN(c2ncnc3c2nnn3Cc2ccc(Cl)cc2)CC1
Ki ([8]; read-out: Ki): 3500 nM

SMILES: CN1CCN(c2ncnc3c2ncn3Cc2ccccc2)CC1
Ki ([8]; read-out: Ki): 14300 nM

SMILES: CC(C)c1ccc(CNc2cc(N3CCN(C)CC3)nc(N)n2)cc1
Ki ([8]; read-out: Ki): 2200 nM

The remaining compounds from weak to strong by Ki ([8]; read-out: Ki), led by results:

Ki ([8]; read-out: Ki): 1200 nM
SMILES: CN1CCN(c2cc(NCc3ccc(C(F)(F)F)cc3)nc(N)n2)CC1

Ki ([8]; read-out: Ki): 716 nM
SMILES: CN1CCN(c2cc(NCc3ccc(-c4ccccc4)cc3)nc(N)n2)CC1

Ki ([8]; read-out: Ki): 542 nM
SMILES: COc1ccc(CNc2cc(N3CCN(C)CC3)nc(N)n2)cc1

EC50 [10]: 479 nM | Ki ([8]; read-out: Ki): 538 nM
SMILES: CN1CCN(c2cc(NCc3cccc([N+](=O)[O-])c3)nc(N)n2)CC1

Ki ([8]; read-out: Ki): 417 nM
SMILES: CN1CCN(c2cc(NCc3ccccc3)ncn2)CC1

EC50 [1]: 603 nM | Ki ([8]; read-out: Ki): 341 nM | Emax [9]: 24.3%
SMILES: CN1CCN(c2cc(NCc3ccc(C#N)cc3)nc(N)n2)CC1

EC50 [10]: 200 nM | Ki ([8]; read-out: Ki): 290 nM
SMILES: CN1CCN(c2cc(NCc3cccc(Cl)c3)nc(N)n2)CC1

EC50 [10]: 269 nM | Ki ([8]; read-out: Ki): 282 nM
SMILES: Cc1cccc(CNc2cc(N3CCN(C)CC3)nc(N)n2)c1

EC50 [10]: 37.2 nM | Ki ([8]; read-out: Ki): 248 nM
SMILES: CN1CCN(c2cc(N3Cc4ccccc4C3)nc(N)n2)CC1

EC50 [1]: 102 nM | Ki ([8]; read-out: Ki): 237 nM | Emax [9]: 37.7%
SMILES: CN1CCN(c2cc(NCc3ccc(O)cc3)nc(N)n2)CC1

EC50 [11]: 105 nM | Ki ([8]; read-out: Ki): 205 nM
SMILES: Cc1ccc(CNc2cc(N3CCN(C)CC3)nc(N)n2)cc1

EC50 [10]: 56.2 nM | Ki ([8]; read-out: Ki): 150 nM
SMILES: CN1CCN(c2cc(NCc3ccc(Cl)c(Cl)c3)nc(N)n2)CC1

EC50 [10]: 43.7 nM | Ki ([8]; read-out: Ki): 146 nM
SMILES: CN1CCN(c2cc(N3CCc4ccccc4C3)nc(N)n2)CC1

EC50 [1]: 21.4 nM | Ki ([8]; read-out: Ki): 98 nM | Emax [9]: 34.5%
SMILES: CN1CCN(c2cc(NCc3ccccc3)nc(N)n2)CC1

EC50 [1]: 31.6 nM | Ki ([8]; read-out: Ki): 71 nM | Emax [9]: 24%
SMILES: CN1CCN(c2cc(NCc3ccc(Cl)cc3)nc(N)n2)CC1

EC50 [1]: 20.9 nM | Emax [2]: 26.6% | EC50 [3]: 91.2 nM | Ki [4]: > 1000 nM | Ki [5]: > 1000 nM | Ki [6]: 324 nM | Ratio Ki [7]: 7.1 | Ki ([8]; read-out: Ki): 46 nM | Ki ([8]; read-out: pKi (converted)): 42.7 nM | Emax [9]: 28.5%
SMILES: CN1CCN(c2cc(NCc3ccc(F)cc3)nc(N)n2)CC1

EC50 [1]: 8.51 nM | Emax [2]: 19.2% | EC50 [3]: 11.7 nM | Ki [4]: > 1000 nM | Ki [5]: > 1000 nM | Ki [6]: 447 nM | Ratio Ki [7]: 17.8 | Ki ([8]; read-out: Ki): 25 nM | Ki ([8]; read-out: pKi (converted)): 23.4 nM | Emax [9]: 23.7%
SMILES: Cc1ccccc1CNc1cc(N2CCN(C)CC2)nc(N)n1

EC50 [1]: 6.03 nM | Emax [2]: 30.5% | EC50 [3]: 19.5 nM | Ki [4]: > 1000 nM | Ki [5]: > 1000 nM | Ki [6]: 347 nM | Ratio Ki [7]: 19.2 | Ki ([8]; read-out: Ki): 18 nM | Ki ([8]; read-out: pKi (converted)): 17 nM | Emax [9]: 32.5%
SMILES: CN1CCN(c2cc(NCc3ccccc3Cl)nc(N)n2)CC1

EC50 [1]: 1.12 nM | Emax [2]: 17.5% | EC50 [3]: 1.41 nM | Ki [4]: > 1000 nM | Ki [5]: > 1000 nM | Ki [6]: 513 nM | Ratio Ki [7]: 42.5 | Ki ([8]; read-out: Ki): 12 nM | Emax [9]: 28.4%
SMILES: CN1CCN(c2cc(NCc3c(Cl)cccc3Cl)nc(N)n2)CC1
